# According to US20100035848A1, “THERAPY FOR DISORDERS OF THE PROXIMAL DIGESTIVE TRACT” (priority 2008, published 2010):
# “And” between values parts separate entries of the source, which are not always exact repeats. Identical values can stand only once.
# Target: T1, ACE2 (Rattus norvegicus, UniProt Q5EGZ1)
# T1 construct: from tissue; host or cells: rat stomach (excluding forestomach) homogenate
# Assay: Acute diclofenac-induced gastric toxicity in rats: ACE2 activity in stomach tissue
# Assay type: in vivo
# Settings: Group C: GL1001 oral before diclofenac 50 mg/kg; vehicle-diclofenac Group B 880 ± 39; p<0.0001
# Experimental: Male Wistar rats were deprived of food but not water for 16 hours prior to oral administration of GL1001 90 mg/kg, incubated for 30 minutes and then given oral diclofenac 50 mg/kg. Each group consisted of 6 rats. As a negative control, one group received vehicle pretreatment, and then received vehicle instead of diclofenac. A positive control group received PGE2 100 μg/kg orally, 30 minutes prior to administration of diclofenac. All treatments were administered by oral gavage.
# Three hours after diclofenac treatment, all animals were sacrificed and stomachs were removed and imaged to determine the severity of gastric damage. Additionally, stomach tissue samples were taken to assess disease activity and pharmacodynamic effects. Gastric damage scores were determined from photographic images (Ma & Wallace (2003) Am. J. Physiol. Gastrointest. Liver Physiol. 279; 341-346). Removed stomachs were opened along the greater curvature, pinned out on a wax block, and photographed along a 25 mm ruler reference with a digital 35 mm camera. The lesion area was then determined using enlarged images and computer software (www.scioncorp.co/pages/scion_image_windows.htm) that allows superimposed drawing of the perimeter of a wound and calculation of the area based on the ruler reference. Stomach samples (excluding forestomach) were used for measurements of PGE2 concentration, MPO activity and ACE2 activity. […] Concentration of PGE2 from stomach tissue samples was performed as described by Souza et al. (2003), supra, and quantification was obtained by LC-MS. […] Last, the extent of inhibition of ACE2 activity was determined to establish whether GL1001 was effective in inhibiting its ACE2 target in stomach tissues. The ACE2 activity assay is similar to the method of Vickers et al. (2002) J. Biol. Chem. 277:14838-14843, wherein purified recombinant ACE2 (100 pM) and a quenched fluorescent substrate (100-150 μM APK (7-methoxycoumarin-4-yl)acetyl-Ala-Pro-Lys (2,4-dinitrophenyl)) are used in end-point fluorescence reactions (excitation 320 nm, emission 405 nm). […]
# Data are expressed as means with standard errors. […]
# T1 sequence (Q5EGZ1 18-805): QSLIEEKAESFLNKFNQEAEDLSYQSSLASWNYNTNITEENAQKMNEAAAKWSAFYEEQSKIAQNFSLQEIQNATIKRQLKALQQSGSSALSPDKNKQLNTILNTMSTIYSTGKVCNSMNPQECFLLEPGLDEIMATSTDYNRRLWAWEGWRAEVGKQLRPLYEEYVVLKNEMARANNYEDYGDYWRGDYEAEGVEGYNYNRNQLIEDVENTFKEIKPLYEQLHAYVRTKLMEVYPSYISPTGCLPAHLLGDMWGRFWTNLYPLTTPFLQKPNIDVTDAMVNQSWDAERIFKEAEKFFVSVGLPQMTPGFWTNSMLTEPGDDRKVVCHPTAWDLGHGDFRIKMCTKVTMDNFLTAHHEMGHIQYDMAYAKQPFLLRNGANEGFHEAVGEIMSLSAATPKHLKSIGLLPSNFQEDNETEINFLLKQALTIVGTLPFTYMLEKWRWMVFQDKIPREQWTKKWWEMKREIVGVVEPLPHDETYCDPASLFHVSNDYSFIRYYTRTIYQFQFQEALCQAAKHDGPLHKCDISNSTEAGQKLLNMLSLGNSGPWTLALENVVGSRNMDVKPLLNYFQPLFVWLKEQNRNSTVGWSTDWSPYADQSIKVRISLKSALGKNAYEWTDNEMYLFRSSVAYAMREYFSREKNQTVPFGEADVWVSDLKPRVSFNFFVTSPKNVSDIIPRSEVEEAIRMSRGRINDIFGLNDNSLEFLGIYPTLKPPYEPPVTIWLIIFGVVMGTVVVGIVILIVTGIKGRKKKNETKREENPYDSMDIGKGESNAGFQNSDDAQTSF
structure (smiles),measurement,value
"CC(C)C[C@H](N[C@@H](Cc1cncn1Cc1cc(Cl)cc(Cl)c1)C(=O)O)C(=O)O [GL1001, (S,S)-2-[1-carboxy-2-[3-(3,5-dichlorobenzyl)-3H-imidazol-4-yl]-ethylamino]-4-methylpentanoic acid]",Gastric ACE2 activity,436 pmol/mg and 436 ± 20 pmol/mg
